Test results published in patent US20120289577A1, “COMPOSITION FOR TREATING OR PREVENTING HEARING LOSS COMPRISING NAPHTHOQUINONE-BASED COMPOUNDS” (KT&G LIFE SCIENCES CORPORATION, priority 2009, published 2012).

Assays:
HSP60 [1] = experiment: Release amounts of HSP60 in HEI-OC1 cells by ELISA; assay type: cell-based
Procedure: (§1) It is generally known that HSP60 in mitochondria is released outside of the cells to bind to TLR2 or TLR4, thereby inducing strong inflammation. Accordingly, the release amounts of HSP60 in mice and HEI-OC1 cells were measured by the ELISA method.

HSP60 [2] = experiment: Location variation of HSP60 by cell staining; assay type: cell-based
Description: Also, location variation of HSP60 was identified by cell staining.

HMGB1 [3] = experiment: Extracellular release of HMGB1 by ELISA; assay type: cell-based
Description: HMGB1 is, together with HSP60, known as an important mediator for the activation of TLRs and the resulting inflammation. Accordingly, the extracellular release of HMGB1 was identified by the ELISA method.

[4] = system: TNF-α, IL-6, HSP60, TLR2 and TLR4 expression in HEI-OC1 cells; experiment: Expression of inflammation mediators by the PCR method; assay type: cell-based
HSP60 [5] = experiment: Release amounts of HSP60 in mice by ELISA; assay type: in vivo
Procedure: as §1

[6] = system: outer and inner hair cells of Corti's organ explants; experiment: Explants of the Corti's organ, shape and arrangement of hair cells; assay type: cell-based
HMGB1 [7] = experiment: HMGB1 expression in inner ear by tissue staining; assay type: in vivo; conditions: 21-month-old mice, compared to control and CR groups
Procedure: In order to identify an effect of β-lapachone against the expression of HMGB1 which is known to be important for the damage and shape variation of mitochondria, a tissue staining was conducted.

6-week-old C57BL/6 mice = assay type: in vivo; conditions: β-lapachone (10, 20 and 40 mg/kg/day) and cisplatin for 4 days, p<0.05
Procedure: 6-week-old C57BL/6 mice were bred in an axenic (germfree) animal facility maintaining constant temperature (22 to 26° C.) and humidity (55 to 60%).
The comparison of the ABR thresholds between groups was conducted by one-way analysis of variance (ANOVA) and P value of 0.05 or less was regarded as being significant.

[8] = system: outer and inner hair cells of the inner ear; experiment: TUNEL identification of hair cell damage in inner ear; assay type: in vivo; conditions: 24-month-old mice, βL group vs control group
Description: In order to identify damage of hair cells, the inner ears of the lab animals were enucleated and subject to terminal deoxynucleotidyl transferase-mediated dUTP nick end-labeling (TUNEL) from the top of cochlea to middle circular part thereof, followed by analyzing TUNEL positive cells using a fluorescence microscope.

[9] = system: C57BL/6 mice (age-related hearing loss model); experiment: Auditory brainstem response (ABR) threshold in animal model with age-related presbycusis; assay type: in vivo; conditions: for ABR threshold: feed containing 0.06% β-lapachone; for recovery of ABR thresholds in comparison with the control group: p<0.05
Procedure: C57BL/6 mice which are well known as a age-related hearing loss model were used for this experiment. 12-month-old C57BL/6 mice were directly purchased from Central Lab. Animal Inc. (Seoul, Korea), and bred up to 24 months of age with measuring hearing loss every 3 months. All mice used in this experiment were bred in an axenic (germfree) animal facility maintaining constant temperature (22 to 26° C.) and humidity (55 to 60%).
All experiments were conducted for groups divided into a control group freely providing normal feed, caloric restriction (CR) group limiting dietary to 70%, and βL group providing feed containing 0.06% β-lapachone (compound 1).
In order to evaluate auditory brainstem response, all lab animals were intramuscularly injected with a mixture of xylazine (5 mg/kg) and ketamine for anesthesia and the variation of auditory brainstem response threshold was measured using a TDT system (Tucker-Davis Technologies, FL, USA) in a soundproof room.
An insertable ear tip (3.5 mm, Nicolet Biomedical, Inc.) was placed in the external auditory meatus, electrodes were placed at scalp vertex (active electrode), the mastoid region of the ear of interest (reference electrode) and the mastoid region of the opposite ear (ground electrode), and the threshold of ABS was measured by starting with 90 dB HL intensity and then sequentially decreasing the intensity by 10 dB at 4, 8, 16 and 32 kHz.
There was no arousal response and death due to respiratory depression during the ABR test. The comparison of the ABR thresholds between groups was conducted by one-way analysis of variance (ANOVA) and P value of 0.05 or less was regarded as being significant.

[10] = system: HEI-OC1 auditory hair cell line; assay type: cell-based; conditions: β-lapachone 30 minutes before treating with cisplatin, p<0.05
mitochondria = experiment: Shape variations of mitochondria by transmission electron microscope (TEM); assay type: in vivo; conditions: 24-month-old mice, compared to 2-month-old lab animals
Description: Also, in order to identify inhibition of age-related mitochondria damage by β-lapachone, the shape variations of mitochondria were detected for three groups of 24-month-old lab animals using a transmission electron microscope (TEM).

[11] = HEI-OC1 cells treated with cisplatin

N.N.[Cl][Pt][Cl] [cisplatin, reference compound]
release amounts of HSP60 (HSP60 [1]; HEI-OC1 cells treated with cisplatin, p<0.05): significantly increased release amounts of HSP60
location of HSP60 (HSP60 [2]; cells treated with cisplatin): HSP60 was almost expressed in cytoplasm
extracellular release of HMGB1 (HMGB1 [3]; [11]): extracellular release of excessive amounts of HMGB1
expression of inflammation mediators (TNF-α, IL-6, HSP60, TLR2, TLR4) [4, 11]: increased expression of inflammation-inducing cytokines such as TNF-α, IL-6 and HSP60 and inflammation mediators such as TLR2 and TLR4
release amounts of HSP60 (HSP60 [5]; mice treated with cisplatin, p<0.05): significantly increased release amounts of HSP60
shape and arrangement of the outer and inner hair cells ([6]; treated with cisplatin): shape and arrangement of the outer and inner hair cells were changed

CC1(C)CCC2=C(O1)c1ccccc1C(=O)C2=O [β-lapachone]
expression of HMGB1 in the inner ear (HMGB1 [7]): significantly decreased expression of HMGB1
recovery of ABR thresholds as compared to the CDDP group (6-week-old C57BL/6 mice): statistically significant recovery at all regions
age-related apoptosis (TUNEL positive cells) in inner ear [8]: significantly inhibited the age-related apoptosis in the whole inner ear
release amounts of HSP60 (HSP60 [1]; HEI-OC1 cells treated with both β-lapachone and cisplatin): decreased release amounts of HSP60 in a β-lapachone concentration-dependent manner
location of HSP60 (HSP60 [2]; cells treated with both β-lapachone and cisplatin): HSP60 was expressed in only mitochondria like the normal cells
ABR threshold ([9]; 15-month-old mice, 4 kHz): 63.33±11.55 dB SPL
ABR threshold ([9]; 15-month-old mice, 8 kHz): 33.33±15.28 dB SPL
ABR threshold ([9]; 15-month-old mice, 16 kHz): 46.67±5.77 dB SPL
ABR threshold ([9]; 15-month-old mice, 32 kHz): 53.33±5.77 dB SPL
ABR threshold ([9]; 18-month-old mice, 4 kHz): 80±0 dB SPL
ABR threshold ([9]; 18-month-old mice, 8 kHz): 46.67±11.55 dB SPL
ABR threshold ([9]; 18-month-old mice, 16 kHz): 56.67±11.55 dB SPL
ABR threshold ([9]; 18-month-old mice, 32 kHz): 66.67±11.55 dB SPL
recovery of ABR thresholds in comparison with the control group ([9]; 21-month-old mice, 4, 8, 16 and 32 kHz): statistically significant recovery at regions except for 16 kHz
ABR threshold ([9]; 21-month-old mice, 4 kHz): 56.67±5.77 dB SPL
ABR threshold ([9]; 21-month-old mice, 8 kHz): 46.67±5.77 dB SPL
ABR threshold ([9]; 21-month-old mice, 16 kHz): 53.33±15.28 dB SPL
ABR threshold ([9]; 21-month-old mice, 32 kHz): 46.67±5.77 dB SPL
recovery of ABR thresholds in comparison with the control group ([9]; 24-month-old mice, 4, 8, 16 and 32 kHz): statistically significant recovery at all regions
recovery of ABR threshold in comparison with the control group ([9]; 24-month-old mice, at 8 to 32 kHz except for 4 kHz): no less than 30 dB SPL
ABR threshold ([9]; 24-month-old mice, 4 kHz): 73.33±5.77 dB SPL
ABR threshold ([9]; 24-month-old mice, 8 kHz): 43.33±5.77 dB SPL
ABR threshold ([9]; 24-month-old mice, 16 kHz): 53.33±5.77 dB SPL
ABR threshold ([9]; 24-month-old mice, 32 kHz): 53.33±11.55 dB SPL
extracellular release amounts of HMGB1 (HMGB1 [3]; HEI-OC1 cells treated with cisplatin and β-lapachone, p<0.05): the release amounts decreased in a β-lapachone concentration-dependent manner
expression of inflammation mediators by cisplatin (TNF-α, IL-6, HSP60, TLR2, TLR4) ([4]; HEI-OC1 cells, β-lapachone 30 minutes before cisplatin): inhibited by β-lapachone in a concentration-dependent manner
release amounts of HSP60 (HSP60 [5]; mice treated with both β-lapachone and cisplatin): decreased release amounts of HSP60 in a β-lapachone concentration-dependent manner
protection from apoptosis by cisplatin (cell viability, MTT) [10]: protected the apoptosis by cisplatin in a concentration-dependent manner
shape and arrangement of the auditory hair cells ([6]; treated with both β-lapachone and cisplatin): maintained the shape and arrangement of the auditory hair cells similar to the control group
number and shape of mitochondria (TEM) (mitochondria): number and shape of mitochondria similar to the 2-month-old lab animals
